Data taken from patent US8536354B2, “Steroidal ligands and their use in gene switch modulation” (Intrexon Corporation, priority 2008, dated 2013).
Like-named read-outs stand apart in the source and are kept apart here.

What was measured:
[1] = test system: D. melanogaster BII cell line (expresses the ecdysteroid receptor complex EcR-USP); assay: Drosophila melanogaster BII cell line bioassay (turbidometric; agonist and antagonist versions); settings: for EC50: read-out: EC50 (M), BII bioassay results
[2] = test system: NcEcR (GAL4-EcR DEF with VP16-RXR partner); assay: Two-hybrid gene switch assay, luciferase reporter, NcEcR, mouse NIH3T3 cells
[3] = biological target: T1, MsEcR (GAL4-EcR DEF with VP16-RXR-USP chimera) (Manduca sexta, UniProt P49883); assay: Two-hybrid gene switch assay, luciferase reporter, MsEcR, mouse NIH3T3 cells
T1 sequence (P49883 1-556): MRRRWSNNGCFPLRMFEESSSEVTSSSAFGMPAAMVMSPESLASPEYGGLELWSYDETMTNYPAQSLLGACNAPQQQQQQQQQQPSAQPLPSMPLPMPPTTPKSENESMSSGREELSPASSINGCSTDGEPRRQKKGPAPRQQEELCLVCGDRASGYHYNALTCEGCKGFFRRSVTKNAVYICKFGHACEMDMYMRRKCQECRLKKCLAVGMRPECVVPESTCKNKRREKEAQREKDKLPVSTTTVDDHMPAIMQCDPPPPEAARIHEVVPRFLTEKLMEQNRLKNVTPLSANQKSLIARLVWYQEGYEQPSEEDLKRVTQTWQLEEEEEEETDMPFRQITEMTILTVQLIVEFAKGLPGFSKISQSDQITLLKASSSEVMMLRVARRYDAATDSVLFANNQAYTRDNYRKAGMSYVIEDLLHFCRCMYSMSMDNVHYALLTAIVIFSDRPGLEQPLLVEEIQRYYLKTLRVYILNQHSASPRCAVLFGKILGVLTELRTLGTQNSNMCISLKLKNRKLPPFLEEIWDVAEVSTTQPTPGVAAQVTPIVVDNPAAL
T1 sequence (P28702 1-533 partner): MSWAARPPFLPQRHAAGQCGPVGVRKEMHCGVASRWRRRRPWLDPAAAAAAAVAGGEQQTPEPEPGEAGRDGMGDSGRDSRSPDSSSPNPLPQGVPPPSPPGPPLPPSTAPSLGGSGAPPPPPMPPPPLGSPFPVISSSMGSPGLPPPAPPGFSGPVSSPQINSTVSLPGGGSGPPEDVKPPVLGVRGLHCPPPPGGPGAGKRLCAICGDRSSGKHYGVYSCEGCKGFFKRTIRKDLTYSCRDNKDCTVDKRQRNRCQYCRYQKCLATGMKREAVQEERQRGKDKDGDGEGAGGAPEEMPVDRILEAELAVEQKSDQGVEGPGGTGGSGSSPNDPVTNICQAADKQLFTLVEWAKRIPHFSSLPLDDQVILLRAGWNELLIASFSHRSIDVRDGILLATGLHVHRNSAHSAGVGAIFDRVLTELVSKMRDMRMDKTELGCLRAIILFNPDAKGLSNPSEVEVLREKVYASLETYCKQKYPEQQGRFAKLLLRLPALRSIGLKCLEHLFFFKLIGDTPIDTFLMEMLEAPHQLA

[4] = biological target: T2, TmEcR (GAL4-EcR DEF with VP16-RXR partner) (Tenebrio molitor, UniProt O02035); assay: Two-hybrid gene switch assay, luciferase reporter, TmEcR, mouse NIH3T3 cells
T2 sequence (O02035 194-491): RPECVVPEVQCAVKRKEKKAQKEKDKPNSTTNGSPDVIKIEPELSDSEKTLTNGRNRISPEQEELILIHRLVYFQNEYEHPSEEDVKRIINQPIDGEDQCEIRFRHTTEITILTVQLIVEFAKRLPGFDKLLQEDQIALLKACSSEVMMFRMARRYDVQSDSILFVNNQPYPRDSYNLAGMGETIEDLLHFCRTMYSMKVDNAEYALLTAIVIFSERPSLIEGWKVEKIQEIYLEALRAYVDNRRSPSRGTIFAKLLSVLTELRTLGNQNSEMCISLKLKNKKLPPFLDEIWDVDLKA
T2 sequence (P28704 1-520 partner): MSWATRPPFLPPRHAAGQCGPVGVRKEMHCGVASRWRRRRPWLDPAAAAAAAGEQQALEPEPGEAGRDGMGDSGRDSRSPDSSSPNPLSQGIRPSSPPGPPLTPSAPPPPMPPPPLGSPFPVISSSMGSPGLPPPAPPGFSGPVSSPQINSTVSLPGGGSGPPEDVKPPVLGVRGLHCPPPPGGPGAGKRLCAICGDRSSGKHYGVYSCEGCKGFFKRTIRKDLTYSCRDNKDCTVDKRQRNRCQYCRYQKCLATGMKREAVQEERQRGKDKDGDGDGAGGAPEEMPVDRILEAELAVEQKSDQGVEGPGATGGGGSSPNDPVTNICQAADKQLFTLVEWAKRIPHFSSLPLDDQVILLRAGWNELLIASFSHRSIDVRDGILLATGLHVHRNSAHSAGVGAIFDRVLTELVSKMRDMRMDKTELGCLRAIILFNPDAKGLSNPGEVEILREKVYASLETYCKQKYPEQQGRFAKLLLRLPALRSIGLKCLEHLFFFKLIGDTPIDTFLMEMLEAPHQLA

[5] = biological target: wild-type Drosophila melanogaster EcR (DmEcR; GAL4-EcR DEF with VP16-RXR-USP chimera) (Drosophila melanogaster, UniProt P34021); assay: Two-hybrid gene switch assay, luciferase reporter, wild-type DmEcR, mouse NIH3T3 cells; type: cell-based
[6] = biological target: wild-type Aedes aegypti EcR (AaEcR; GAL4-EcR DEF with VP16-RXR-USP chimera) (Aedes aegypti, UniProt P49880); assay: Two-hybrid gene switch assay, luciferase reporter, wild-type AaEcR, mouse NIH3T3 cells; type: cell-based; settings: read-out: EC50
[7] = biological target: BmEcR (GAL4-EcR DEF with VP16-RXR-USP chimera) (Bombyx mori, UniProt P49881); assay: Two-hybrid gene switch assay, luciferase reporter, BmEcR, mouse NIH3T3 cells; type: cell-based
[8] = biological target: T3, BaEcR (GAL4-EcR DEF with VP16-RXR-USP chimera) (Bemisia tabaci, UniProt A0A6M3RDR8); assay: Two-hybrid gene switch assay, luciferase reporter, BaEcR, mouse NIH3T3 cells
T3 sequence (A0A6M3RDR8 115-530): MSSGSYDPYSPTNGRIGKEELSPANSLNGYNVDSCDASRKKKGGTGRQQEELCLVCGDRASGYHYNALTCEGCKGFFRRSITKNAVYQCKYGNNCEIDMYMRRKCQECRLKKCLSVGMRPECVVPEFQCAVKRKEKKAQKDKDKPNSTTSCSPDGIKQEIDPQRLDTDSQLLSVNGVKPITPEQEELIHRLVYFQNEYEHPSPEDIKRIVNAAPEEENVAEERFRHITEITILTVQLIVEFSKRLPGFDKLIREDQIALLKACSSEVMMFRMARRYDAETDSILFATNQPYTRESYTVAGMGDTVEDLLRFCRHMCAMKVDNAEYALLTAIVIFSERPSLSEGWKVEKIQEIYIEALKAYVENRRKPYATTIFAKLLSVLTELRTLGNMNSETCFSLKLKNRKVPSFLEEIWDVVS
T3 sequence (P28702 1-533 partner): T1 sequence (P28702 1-533 partner)

[9] = biological target: T4, AmaEcR (GAL4-EcR DEF with VP16-RXR-USP chimera) (Amblyomma americanum, UniProt O44338); assay: Two-hybrid gene switch assay, luciferase reporter, AmaEcR, mouse NIH3T3 cells
T4 sequence (O44338 255-570): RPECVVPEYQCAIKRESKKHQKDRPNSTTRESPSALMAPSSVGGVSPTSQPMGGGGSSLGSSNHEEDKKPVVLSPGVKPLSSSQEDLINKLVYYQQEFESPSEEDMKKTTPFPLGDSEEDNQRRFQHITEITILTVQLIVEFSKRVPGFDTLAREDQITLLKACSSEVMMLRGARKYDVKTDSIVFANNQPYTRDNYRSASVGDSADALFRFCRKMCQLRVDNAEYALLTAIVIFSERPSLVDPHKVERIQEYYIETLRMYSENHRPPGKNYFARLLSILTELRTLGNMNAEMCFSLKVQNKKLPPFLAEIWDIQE
T4 sequence (P28702 1-533 partner): T1 sequence (P28702 1-533 partner)

[10] = biological target: T5, wild-type CfEcR (GAL4-CfEcR-DEF with VP16-RXR-USP chimera) (Choristoneura fumiferana, UniProt O77255); assay: Two-hybrid gene switch assay, luciferase reporter, wild-type CfEcR, mouse NIH3T3 cells
T5 sequence (O77255 219-541): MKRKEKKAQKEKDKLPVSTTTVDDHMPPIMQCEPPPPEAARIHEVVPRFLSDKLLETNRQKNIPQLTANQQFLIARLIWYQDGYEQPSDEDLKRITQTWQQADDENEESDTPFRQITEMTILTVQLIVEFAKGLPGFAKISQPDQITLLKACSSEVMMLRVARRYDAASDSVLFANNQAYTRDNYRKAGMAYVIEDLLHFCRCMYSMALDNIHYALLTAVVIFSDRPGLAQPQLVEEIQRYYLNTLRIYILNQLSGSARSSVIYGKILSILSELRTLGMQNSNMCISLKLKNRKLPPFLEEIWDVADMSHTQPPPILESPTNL
T5 sequence (P28702 1-533 partner): T1 sequence (P28702 1-533 partner)

[11] = D. melanogaster BII cell line, turbidometric
[12] = EC50, FIG. 13A/13B, GAL4-EcR(DEF) with VP16-RXR-USP chimera
[13] = EC50, FIG. 14A/14B, GAL4-EcR(DEF)
[14] = EC50, FIG. 14A/14B, GAL4-EcR(DEF) with VP16-RXR-USP chimera
[15] = EC50, FIG. 16, GAL4-EcR (DEF) / VP16-RXR-USP chimera
[16] = FIG. 14A/14B, GAL4-EcR(DEF) with VP16-RXR-USP chimera
[17] = FIG. 14A/14B, GAL4-EcR(DEF) with VP16-RXR-USP chimera, read-out: EC50
[18] = FIG. 13A/13B, BmEcR, GAL4-EcR(DEF) with VP16-RXR-USP chimera, read-out: EC50

Sequence of BmEcR (GAL4-EcR DEF with VP16-RXR-USP chimera) (P49881 other isoform, or with tags, fused parts or gaps, change not shown): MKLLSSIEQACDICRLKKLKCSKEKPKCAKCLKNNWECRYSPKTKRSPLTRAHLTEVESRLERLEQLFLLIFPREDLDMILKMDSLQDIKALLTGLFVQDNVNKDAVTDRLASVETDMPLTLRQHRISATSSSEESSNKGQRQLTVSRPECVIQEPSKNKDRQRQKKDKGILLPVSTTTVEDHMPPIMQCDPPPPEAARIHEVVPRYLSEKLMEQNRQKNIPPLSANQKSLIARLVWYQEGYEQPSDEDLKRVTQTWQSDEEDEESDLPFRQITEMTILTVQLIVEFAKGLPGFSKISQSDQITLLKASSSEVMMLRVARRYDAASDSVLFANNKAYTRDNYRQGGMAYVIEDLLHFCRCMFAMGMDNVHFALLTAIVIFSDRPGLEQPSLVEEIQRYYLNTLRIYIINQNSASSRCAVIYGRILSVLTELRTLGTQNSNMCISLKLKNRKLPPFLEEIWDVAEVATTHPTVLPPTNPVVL
Sequence of wild-type Drosophila melanogaster EcR (DmEcR; GAL4-EcR DEF with VP16-RXR-USP chimera) (P34021 with tags, fused parts or gaps limits assumed): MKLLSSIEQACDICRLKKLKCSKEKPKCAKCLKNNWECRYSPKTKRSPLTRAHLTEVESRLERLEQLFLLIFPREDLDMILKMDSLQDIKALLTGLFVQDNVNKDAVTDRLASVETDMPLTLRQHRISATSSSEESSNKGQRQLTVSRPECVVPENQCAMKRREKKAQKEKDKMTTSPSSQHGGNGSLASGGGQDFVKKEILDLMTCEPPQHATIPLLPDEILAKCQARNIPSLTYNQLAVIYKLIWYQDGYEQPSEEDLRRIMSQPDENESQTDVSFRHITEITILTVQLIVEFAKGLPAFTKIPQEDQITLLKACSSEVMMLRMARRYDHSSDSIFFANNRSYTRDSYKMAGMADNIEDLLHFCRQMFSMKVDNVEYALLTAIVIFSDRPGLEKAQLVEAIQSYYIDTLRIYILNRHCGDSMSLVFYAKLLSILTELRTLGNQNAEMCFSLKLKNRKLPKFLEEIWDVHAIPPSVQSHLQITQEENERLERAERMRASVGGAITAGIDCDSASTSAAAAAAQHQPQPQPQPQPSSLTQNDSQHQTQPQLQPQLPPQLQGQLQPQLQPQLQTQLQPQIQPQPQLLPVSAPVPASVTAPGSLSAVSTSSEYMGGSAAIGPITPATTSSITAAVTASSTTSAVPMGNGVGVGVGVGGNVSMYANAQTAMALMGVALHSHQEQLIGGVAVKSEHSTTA
Sequence of wild-type Aedes aegypti EcR (AaEcR; GAL4-EcR DEF with VP16-RXR-USP chimera) (P49880 with tags, fused parts or gaps limits assumed, change not shown): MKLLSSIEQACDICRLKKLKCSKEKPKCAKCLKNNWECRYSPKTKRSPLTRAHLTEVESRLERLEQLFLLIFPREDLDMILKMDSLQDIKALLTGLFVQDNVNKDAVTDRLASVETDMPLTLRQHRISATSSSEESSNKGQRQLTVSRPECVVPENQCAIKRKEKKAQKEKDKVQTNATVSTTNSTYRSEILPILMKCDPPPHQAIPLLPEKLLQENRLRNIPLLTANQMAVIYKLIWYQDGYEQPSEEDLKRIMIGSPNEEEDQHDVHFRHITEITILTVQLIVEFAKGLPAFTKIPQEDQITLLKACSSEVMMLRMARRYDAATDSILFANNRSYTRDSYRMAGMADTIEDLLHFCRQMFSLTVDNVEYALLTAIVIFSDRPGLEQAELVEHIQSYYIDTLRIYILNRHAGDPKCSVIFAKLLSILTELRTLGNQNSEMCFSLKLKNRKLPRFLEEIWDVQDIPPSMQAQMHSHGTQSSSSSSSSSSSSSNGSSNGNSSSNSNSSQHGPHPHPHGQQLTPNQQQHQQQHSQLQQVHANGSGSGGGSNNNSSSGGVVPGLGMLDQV

| SMILES | EC50 ([1]; Drosophila melanogaster) [M] | EC50 [3, 12] [µM] | EC50 [4, 13] [µM] | EC50 [6, 16] [µM] | EC50 [8, 14] [µM] | EC50 [9, 14] [µM] | EC50 ([2]; FIG. 14A/14B, GAL4-EcR(DEF)) [µM] | further results |
| --- | --- | --- | --- | --- | --- | --- | --- | --- |
| CC(C)(O)CC[C@@H](OCc1ccccc1)[C@](C)(O)C1CC[C@@]2(O)C3=CC(=O)C4C[C@@H](O)[C@@H](O)CC4(C)C3CCC12C (some centres unmarked) [compound 9, 20-hydroxyecdysone, 22-benzyl ether] | 2.2e-08 |  |  |  |  |  |  | BII potency relative to 20E [1]: does not decrease 20E potency very much |
| CCC1(O[C@H](CCC(C)(C)O)[C@](C)(O)C2CC[C@@]3(O)C4=CC(=O)C5C[C@@H](O)[C@@H](O)CC5(C)C4CCC23C)CO1 (stereo partly drawn) [compound 23, 20-hydroxyecdysone, 22-(28R,S)-2′-ethyloxiranyl ether] | 2.2e-05 |  |  |  |  |  |  |  |
| CCCO[C@H](CCC(C)(C)O)[C@](C)(O)C1CC[C@@]2(O)C3=CC(=O)C4C[C@@H](O)[C@@H](O)CC4(C)C3CCC12C (some centres unmarked) [compound 6, 20-hydroxyecdysone, 22-n-propyl ether] | 8.3e-07 |  |  |  |  |  |  |  |
| CO[C@H]1C[C@@]2(C)[C@@H](C[C@H]1O)C(=O)C=C1[C@@H]2CC[C@]2(C)[C@@H]([C@@](C)(O)[C@@H](CCC(C)C)OC)CC[C@@]12O [compound 19, ponasterone A, 2,22-dimethyl ether] |  |  |  |  |  |  |  | EC50 [1, 11]: 3e-08 M |
| CC(=O)C1CCC2(O)C3=CC(=O)C4CC(O)C(O)CC4(C)C3CCC12C (centres unmarked) [poststerone] |  | > 33 | > 33 | > 33 | > 33 | > 33 |  | EC50 ([2]; FIG. 16, GAL4-EcR (DEF)): ~10 µM; EC50 ([3]; EC50, FIG. 15, GAL4-EcR (DEF) / VP16-RXR-USP chimera): > 33 µM; EC50 ([4]; EC50, FIG. 16, GAL4-EcR (DEF)): > 33 µM; EC50 [5, 14]: > 33 µM; EC50 [5, 15]: > 33 µM; EC50 ([6]; FIG. 16, GAL4-EcR (DEF) / VP16-RXR-USP chimera): 10.5 µM; EC50 ([7]; read-out: EC50): > 33 µM; EC50 [8, 15]: > 33 µM; EC50 [9, 15]: ~10 µM |
| CO[C@@]12CC[C@H]([C@@](C)(O)[C@H](O)CCC(C)C)[C@@]1(C)CC[C@H]1C2=CC(=O)[C@@H]2C[C@@H](O)[C@@H](O)C[C@@]21C [compound 17, ponasterone A, 14-methyl ether] |  |  |  |  |  |  |  | EC50 [1, 11]: 6e-08 M |
| CC(C)(O)CC[C@@H](O)[C@](C)(O)[C@H]1CC[C@@]2(O)C3=CC(=O)[C@@H]4C[C@H](O)[C@@H](O)C[C@]4(C)[C@H]3CC[C@]12C |  | ~10 | > 33 | ~8 | ~20 | ~10 | 4.84 | EC50 [5, 17]: ~20 µM; EC50 [7, 18]: > 33 µM |
| CC(C)(O)CCCC(C)(O)C1CCC2(O)C3=CC(=O)C4CC(O)C(O)CC4(C)C3CCC12C (centres unmarked) |  | ~15 | ~20 |  | ~10 | ~10 | 3.04 | EC50 [10]: > 33 µM; EC50 [5, 14]: ~20 µM; EC50 [7]: > 33 µM |
| CC(C)(O)CC[C@@H](O)[C@](C)(O)[C@H]1CC[C@@]2(O)C3=CC(=O)[C@H]4C[C@@H](O)[C@@H](O)C[C@]4(C)[C@H]3CC[C@]12C [(5a-H)-20-hydroxyecdysone] |  | > 33 | > 33 | ~20 | > 33 | > 33 | ~15 | EC50 [5, 17]: > 33 µM; EC50 [7, 18]: > 33 µM |
